In ChEMBL document CHEMBL3044678, “The synthesis and herbicidal activity of 1-alkyl-3-(alpha-hydroxy-substituted benzylidene)pyrrolidine-2,4-diones” (2005) one finds inhibition of growth and Activity data, which are given here for 24 compounds.

The subject of assay [1] is Echinochloa crus-galli. In words: Herbicidal activity against Echinochloa crus-galli (barnyard grass) assessed as growth inhibition at 100 ug/mL. Conditions: (L.) Beauv, read-out: GI. Type of assay: functional.
Assay [2] concerns Echinochloa crus-galli. In words: Herbicidal activity against Echinochloa crus-galli (barnyard grass) assessed as growth inhibition at 10 ug/mL. Format: functional. Particulars: (L.) Beauv, read-out: GI.
Assay [3] has as its system Brassica napus. In words: Herbicidal activity against Brassica napus (oilseed rape) assessed as growth inhibition at 10 ug/mL. Type of assay: functional. Conditions: read-out: GI.
The test system of assay [4] is Brassica napus. In words: Herbicidal activity against Brassica napus (oilseed rape) assessed as growth inhibition at 100 ug/mL. Particulars: read-out: GI. Format: functional.
In assay [5] the test system is Echinochloa crus-galli. The experiment in a line: Herbicidal activity against Echinochloa crus-galli (barnyard grass) assessed as plant bleaching effect at 100 ug/mL. Conditions: (L.) Beauv. Type of assay: functional, organism-based.

The structures appear in SMILES notation. The source made the active and inactive calls. The rule behind the calls is not given here.

Turning to `Cc1ccccc1/C(O)=C1\C(=O)CN(C)C1=O`, the inhibition of growth at 100 µg/mL with Echinochloa crus-galli [1] was 78.3%; in the assay on Brassica napus [4] it was 44.4%. Besides, the inhibition of growth at 10 µg/mL with Echinochloa crus-galli [2] stood at 31.2%; in the assay on Brassica napus [3] it was 0%. The result with Echinochloa crus-galli [5] was Active.

In the case of `Cc1ccc(/C(O)=C2\C(=O)CN(C(C)(C)C)C2=O)cc1`, the figures for the inhibition of growth at 100 µg/mL in the assay on Echinochloa crus-galli [1] and in the assay on Brassica napus [4] were 48% and 88.1%, respectively. Moreover, the inhibition of growth at 10 µg/mL was found to be 36.3% in the assay with Echinochloa crus-galli [2] and 13.5% with Brassica napus [3]. Moreover, the result with Echinochloa crus-galli [5] was inactive.

Take `CC(C)(C)N1CC(=O)/C(=C(/O)c2ccc([N+](=O)[O-])cc2)C1=O`: the inhibition of growth at 100 µg/mL in the assay with Echinochloa crus-galli [1] is 9.8%; in the assay on Brassica napus [4] it was 48.1%. The figures for the inhibition of growth at 10 µg/mL in the assay on Echinochloa crus-galli [2] and in the assay on Brassica napus [3] were 0% and 1.8%, respectively. Also, the outcome in the assay with Echinochloa crus-galli [5] was inactive.

Turning to `CS(=O)(=O)c1ccc(C(=O)C2C(=O)CCCC2=O)c(Cl)c1` [SULCOTRIONE], the inhibition of growth at 100 µg/mL in the assay with Echinochloa crus-galli [1] was found to be 45.1%; with Brassica napus [4] it was 38.1%. Moreover, the inhibition of growth at 10 µg/mL was determined as 29.4% with Echinochloa crus-galli [2] and 3.5% with Brassica napus [3]. In addition, the outcome with Echinochloa crus-galli [5] was Active.

Take `COc1ccccc1/C(O)=C1\C(=O)CN(C(C)C)C1=O`: the inhibition of growth at 100 µg/mL was determined as 78.1% in the assay on Echinochloa crus-galli [1] and 58.7% with Brassica napus [4]. The inhibition of growth at 10 µg/mL with Echinochloa crus-galli [2] was 77.3%; in the assay on Brassica napus [3] it was 3%. Further, in the assay on Echinochloa crus-galli [5], the result was Active.

For the compound `CC(C)(C)N1CC(=O)/C(=C(/O)c2cccc([N+](=O)[O-])c2)C1=O`, the figures for the inhibition of growth at 100 µg/mL in the assay with Echinochloa crus-galli [1] and in the assay on Brassica napus [4] were 0.5% and 80.1%, respectively. Further, the inhibition of growth at 10 µg/mL was determined as 0% in the assay on Echinochloa crus-galli [2] and 22.1% in the assay on Brassica napus [3]. In addition, the outcome in the assay with Echinochloa crus-galli [5] was inactive.

In the case of `Cc1ccccc1/C(O)=C1\C(=O)CN(C(C)(C)C)C1=O`, the inhibition of growth at 100 µg/mL is 74.4% in the assay with Echinochloa crus-galli [1] and 74.9% in the assay with Brassica napus [4]. The inhibition of growth at 10 µg/mL in the assay on Echinochloa crus-galli [2] was 63.6%; in the assay on Brassica napus [3], 21.1%. Further, the outcome with Echinochloa crus-galli [5] was Active.

Consider `CN1CC(=O)/C(=C(/O)c2cccc([N+](=O)[O-])c2)C1=O`, for which the figures for the inhibition of growth at 100 µg/mL with Echinochloa crus-galli [1] and in the assay on Brassica napus [4] were 42.8% and 22.4%, respectively. In addition, the inhibition of growth at 10 µg/mL in the assay with Echinochloa crus-galli [2] was 5.2%; in the assay with Brassica napus [3], 0%. Also, in the assay on Echinochloa crus-galli [5], the result was inactive.

Take `CN1CC(=O)/C(=C(/O)c2ccc(Cl)cc2)C1=O`: the inhibition of growth at 100 µg/mL was determined as 50.1% in the assay with Echinochloa crus-galli [1] and 90.5% with Brassica napus [4]. Further, the inhibition of growth at 10 µg/mL with Echinochloa crus-galli [2] was found to be 9.4%; in the assay on Brassica napus [3], 15.8%. Moreover, the result in the assay with Echinochloa crus-galli [5] was inactive.

On to `Cc1cccc(/C(O)=C2\C(=O)CN(C)C2=O)c1`, for which the inhibition of growth at 100 µg/mL in the assay on Echinochloa crus-galli [1] worked out at 68.3%; in the assay on Brassica napus [4], 64%. The inhibition of growth at 10 µg/mL in the assay on Echinochloa crus-galli [2] was found to be 25.3%; with Brassica napus [3], 14%. In addition, in the assay on Echinochloa crus-galli [5], the outcome was Active.

As to `Cc1ccccc1/C(O)=C1\C(=O)CN(C(C)C)C1=O`, the inhibition of growth at 100 µg/mL in the assay on Echinochloa crus-galli [1] amounted to 77.3%; in the assay on Brassica napus [4], 62.4%. Further, the inhibition of growth at 10 µg/mL in the assay on Echinochloa crus-galli [2] was determined as 76.9%; with Brassica napus [3], 15.2%. Further, the result in the assay on Echinochloa crus-galli [5] was Active.

Turning to `CN1CC(=O)/C(=C(/O)c2ccc([N+](=O)[O-])cc2)C1=O`, the inhibition of growth at 100 µg/mL in the assay with Echinochloa crus-galli [1] was 51.9%; in the assay on Brassica napus [4], 40.9%. The results for the inhibition of growth at 10 µg/mL in the assay on Echinochloa crus-galli [2] and with Brassica napus [3] were 9% and 5.1%, respectively. Moreover, the outcome in the assay on Echinochloa crus-galli [5] was inactive.

In the case of `COc1ccc(/C(O)=C2\C(=O)CN(C)C2=O)cc1`, the inhibition of growth at 100 µg/mL stood at 78.8% in the assay on Echinochloa crus-galli [1] and 50.7% in the assay with Brassica napus [4]. Also, the inhibition of growth at 10 µg/mL was found to be 16.2% in the assay on Echinochloa crus-galli [2] and 7.9% in the assay on Brassica napus [3]. Further, in the assay with Echinochloa crus-galli [5], the result was Active.

`COc1ccccc1/C(O)=C1\C(=O)CN(C(C)(C)C)C1=O`: the inhibition of growth at 100 µg/mL with Echinochloa crus-galli [1] is 82.9%; in the assay on Brassica napus [4] it was 69.5%. Besides, the inhibition of growth at 10 µg/mL came to 74.9% with Echinochloa crus-galli [2] and 41.2% in the assay with Brassica napus [3]. Further, the result in the assay on Echinochloa crus-galli [5] was Active.

For `COc1ccc(/C(O)=C2\C(=O)CN(C(C)C)C2=O)cc1`, the inhibition of growth at 100 µg/mL came out at 80% in the assay with Echinochloa crus-galli [1] and 71% in the assay on Brassica napus [4]. For the same compound, the inhibition of growth at 10 µg/mL in the assay on Echinochloa crus-galli [2] stood at 79.6%; with Brassica napus [3], 11.9%. For the same compound, the result in the assay with Echinochloa crus-galli [5] was Active.

In the case of `CC(C)(C)N1CC(=O)/C(=C(/O)c2ccc(Cl)cc2)C1=O`, the inhibition of growth at 100 µg/mL in the assay on Echinochloa crus-galli [1] worked out at 20.8%; with Brassica napus [4] it was 98%. The inhibition of growth at 10 µg/mL was 0.4% in the assay with Echinochloa crus-galli [2] and 13.8% with Brassica napus [3]. The outcome with Echinochloa crus-galli [5] was inactive.

Turning to `Cc1cccc(/C(O)=C2\C(=O)CN(C(C)(C)C)C2=O)c1`, the inhibition of growth at 100 µg/mL came to 48.5% with Echinochloa crus-galli [1] and 85% in the assay with Brassica napus [4]. Besides, the results for the inhibition of growth at 10 µg/mL with Echinochloa crus-galli [2] and with Brassica napus [3] were 4.9% and 24.9%, respectively. The result in the assay on Echinochloa crus-galli [5] was inactive.

With `Cc1ccc(/C(O)=C2\C(=O)CN(C(C)C)C2=O)cc1`, the inhibition of growth at 100 µg/mL in the assay with Echinochloa crus-galli [1] amounted to 78.4%; in the assay with Brassica napus [4], 86.4%. Besides, the inhibition of growth at 10 µg/mL stood at 76.8% with Echinochloa crus-galli [2] and 8.1% in the assay on Brassica napus [3]. The result in the assay with Echinochloa crus-galli [5] was Active.

`CC(C)N1CC(=O)/C(=C(/O)c2ccccc2Cl)C1=O`: the inhibition of growth at 100 µg/mL with Echinochloa crus-galli [1] was determined as 77.9%; in the assay on Brassica napus [4] it was 66.8%. Also, the inhibition of growth at 10 µg/mL was 51% in the assay on Echinochloa crus-galli [2] and 38.9% with Brassica napus [3]. Moreover, the result with Echinochloa crus-galli [5] was Active.

For the compound `CC(C)N1CC(=O)/C(=C(/O)c2ccc(Cl)cc2)C1=O`, the values for the inhibition of growth at 100 µg/mL with Echinochloa crus-galli [1] and in the assay with Brassica napus [4] were 68% and 77.2%, respectively. For the same compound, the results for the inhibition of growth at 10 µg/mL with Echinochloa crus-galli [2] and in the assay on Brassica napus [3] were 25.1% and 16%, respectively. The outcome with Echinochloa crus-galli [5] was Active.

Take `Cc1cccc(/C(O)=C2\C(=O)CN(C(C)C)C2=O)c1`: the inhibition of growth at 100 µg/mL turned out to be 75.5% in the assay with Echinochloa crus-galli [1] and 82.1% in the assay with Brassica napus [4]. In addition, the inhibition of growth at 10 µg/mL is 49.2% with Echinochloa crus-galli [2] and 3.3% in the assay with Brassica napus [3]. In addition, in the assay with Echinochloa crus-galli [5], the outcome was Active.

For the compound `CC(C)N1CC(=O)/C(=C(/O)c2cccc([N+](=O)[O-])c2)C1=O`, the results for the inhibition of growth at 100 µg/mL in the assay with Echinochloa crus-galli [1] and with Brassica napus [4] were 42% and 70.3%, respectively. Further, the inhibition of growth at 10 µg/mL amounted to 0% with Echinochloa crus-galli [2] and 10.2% in the assay on Brassica napus [3]. Further, in the assay with Echinochloa crus-galli [5], the result was inactive.

Take `COc1ccc(/C(O)=C2\C(=O)CN(C(C)(C)C)C2=O)cc1`: the inhibition of growth at 100 µg/mL was 80.3% with Echinochloa crus-galli [1] and 77.7% with Brassica napus [4]. The inhibition of growth at 10 µg/mL was 78.7% in the assay on Echinochloa crus-galli [2] and 5.4% in the assay on Brassica napus [3]. For the same compound, in the assay on Echinochloa crus-galli [5], the outcome was Active.

On to `CC(C)N1CC(=O)/C(=C(/O)c2ccc([N+](=O)[O-])cc2)C1=O`, for which the values for the inhibition of growth at 100 µg/mL with Echinochloa crus-galli [1] and with Brassica napus [4] were 1.6% and 34.2%, respectively. For the same compound, the inhibition of growth at 10 µg/mL in the assay with Echinochloa crus-galli [2] worked out at 0%; in the assay with Brassica napus [3] it was 4.5%. Moreover, in the assay on Echinochloa crus-galli [5], the result was inactive.
